Source: patent US4740504A, “Antihyperlipidemic amine boranes” (United States Borax & Chemical Corp., priority 1987, dated 1988)
Like-named read-outs stand apart in the source and are kept apart here.

Columns and labels:
[1] = biological target: T1, acyl CoA cholesterol acyl transferase (Mus musculus, UniProt O88908); experiment: Enzyme activity after in vivo dosing: acyl CoA cholesterol acyl transferase; conditions: 8 mg/kg/day
T1 construct: from tissue
T1 sequence (O88908 1-525): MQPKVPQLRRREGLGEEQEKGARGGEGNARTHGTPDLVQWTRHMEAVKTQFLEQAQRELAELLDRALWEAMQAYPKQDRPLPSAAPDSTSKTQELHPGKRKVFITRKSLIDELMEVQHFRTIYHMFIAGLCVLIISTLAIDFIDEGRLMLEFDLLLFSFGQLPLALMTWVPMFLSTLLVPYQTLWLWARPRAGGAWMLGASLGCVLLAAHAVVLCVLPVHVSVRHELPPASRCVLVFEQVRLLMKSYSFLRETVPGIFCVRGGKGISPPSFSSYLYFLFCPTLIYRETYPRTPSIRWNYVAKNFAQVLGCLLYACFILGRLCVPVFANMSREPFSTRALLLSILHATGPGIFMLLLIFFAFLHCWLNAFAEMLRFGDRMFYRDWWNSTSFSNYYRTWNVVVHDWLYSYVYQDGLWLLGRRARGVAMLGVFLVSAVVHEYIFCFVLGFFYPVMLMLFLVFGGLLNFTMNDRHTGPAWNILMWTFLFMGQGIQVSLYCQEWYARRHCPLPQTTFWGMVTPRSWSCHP

acetyl CoA synthetase = biological target: T2, acetyl CoA synthetase (Mus musculus, UniProt Q9QXG4); experiment: Enzymatic studies in vitro: acetyl CoA synthetase; format: biochemical; conditions: at all concentrations tested
T2 construct: from tissue
T2 sequence (Q9QXG4 whole entry): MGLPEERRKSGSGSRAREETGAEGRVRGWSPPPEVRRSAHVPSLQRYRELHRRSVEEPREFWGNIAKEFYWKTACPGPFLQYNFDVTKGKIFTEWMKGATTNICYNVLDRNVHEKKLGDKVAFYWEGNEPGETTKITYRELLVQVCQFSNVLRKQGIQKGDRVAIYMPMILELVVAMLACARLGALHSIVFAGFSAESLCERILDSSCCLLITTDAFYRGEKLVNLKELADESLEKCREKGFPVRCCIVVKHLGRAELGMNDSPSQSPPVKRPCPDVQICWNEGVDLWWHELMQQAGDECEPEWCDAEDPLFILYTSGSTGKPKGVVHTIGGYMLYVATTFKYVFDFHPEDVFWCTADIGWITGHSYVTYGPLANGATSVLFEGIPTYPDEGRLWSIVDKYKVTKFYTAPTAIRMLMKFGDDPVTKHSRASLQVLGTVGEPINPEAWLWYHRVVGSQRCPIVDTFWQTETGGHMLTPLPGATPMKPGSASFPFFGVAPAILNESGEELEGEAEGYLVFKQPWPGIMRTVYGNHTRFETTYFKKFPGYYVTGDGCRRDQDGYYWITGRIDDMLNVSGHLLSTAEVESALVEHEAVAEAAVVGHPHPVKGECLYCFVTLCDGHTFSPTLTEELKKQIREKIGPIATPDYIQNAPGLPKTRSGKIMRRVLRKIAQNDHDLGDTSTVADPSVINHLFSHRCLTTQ

male CF1 mice [2] = experiment: Hypolipidemic activity in CF1 mice, intraperitoneal dosing (serum cholesterol and triglyceride); format: in vivo; conditions: for response vs control in vivo at 20 mg/kg: Mus musculus, ip, Table I, 20 mg./kg./day i.p., male CF1 mice; for Serum Cholesterol Day 9 (X ± SD) / Serum Cholesterol Day 16 (X ± SD) / Serum Triglyceride Day 16 (X ± SD) / Serum Triglyceride Day 9 (X ± SD): Table III, CF1 mice, N = 6
Experimental: For determining hypolipidemic activity, the compounds were suspended in an aqueous 1% carboxymethylcellulose solution and tested at 5 or 20 mg./kg./day administered intraperitoneally to male CF1 mice (~25 g.). On days 9 and 16 blood was collected by tail vein bleeding and the serum separated by centrifugation for three minutes. Serum cholesterol levels were determined by a modified Liebermann-Burchard reaction. Serum triglyceride levels were also determined at 16 days using a Fisher-Hycel Triglyceride Test Kit.
The test was repeated at a dosage of 8 mg./kg./day.
N-n-Octadecyl-N,N-dimethylamine borane was suspended in an aqueous 1% carboxymethylcellulose solution, homogenized, and administered to CF1 male mice (~25 g.) intraperitoneally for 16 days or Sprague Dawley male rats (~350 g.) orally by an intubation needle for 14 days. On days 9 and 14 or 16, blood was obtained by tail vein bleeding and the serum separated by centrifugation for 3 minutes. The serum cholesterol levels were determined by a modification of the Liebermann-Burchard reaction. Serum was also collected on day 14 or 16 and the triglyceride content was determined by a Fisher-Hycel Triglyceride Test Kit.

Actyl CoA carboxylase = experiment: Enzymatic studies in vitro: acetyl CoA carboxylase; format: biochemical
HMG CoA reductase [3] = biological target: T3, HMG CoA reductase (Mus musculus, UniProt Q01237); experiment: Enzyme activity after in vivo dosing: HMG CoA reductase; conditions: maximal reduction at 4 mg/kg/day
T3 construct: from tissue
T3 sequence (Q01237 1-887): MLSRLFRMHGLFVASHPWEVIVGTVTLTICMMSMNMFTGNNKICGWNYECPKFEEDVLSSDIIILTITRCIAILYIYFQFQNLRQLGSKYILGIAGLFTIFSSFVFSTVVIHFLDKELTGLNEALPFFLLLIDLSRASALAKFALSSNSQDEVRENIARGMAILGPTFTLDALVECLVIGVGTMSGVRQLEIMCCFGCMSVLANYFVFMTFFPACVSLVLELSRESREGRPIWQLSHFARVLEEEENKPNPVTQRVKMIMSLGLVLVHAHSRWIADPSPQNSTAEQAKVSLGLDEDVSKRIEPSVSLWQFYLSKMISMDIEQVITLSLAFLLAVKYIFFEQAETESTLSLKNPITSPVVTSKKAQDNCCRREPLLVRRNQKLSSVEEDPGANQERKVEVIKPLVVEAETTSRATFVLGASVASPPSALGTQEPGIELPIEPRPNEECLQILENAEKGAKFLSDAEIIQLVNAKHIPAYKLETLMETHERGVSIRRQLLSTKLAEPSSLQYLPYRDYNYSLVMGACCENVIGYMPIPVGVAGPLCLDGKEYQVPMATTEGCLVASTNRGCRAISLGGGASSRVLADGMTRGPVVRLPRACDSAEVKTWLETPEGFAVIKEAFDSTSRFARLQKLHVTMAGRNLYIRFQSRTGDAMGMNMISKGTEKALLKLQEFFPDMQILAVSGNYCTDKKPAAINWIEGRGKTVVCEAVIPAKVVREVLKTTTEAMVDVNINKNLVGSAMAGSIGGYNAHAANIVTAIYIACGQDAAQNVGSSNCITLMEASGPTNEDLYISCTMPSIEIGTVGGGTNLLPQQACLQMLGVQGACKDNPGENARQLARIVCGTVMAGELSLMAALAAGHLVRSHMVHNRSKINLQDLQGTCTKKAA

[4] = tested on: liver mitochondrial citrate exchange; experiment: Enzymatic studies in vitro: liver mitochondrial citrate exchange; format: biochemical; conditions: at all concentrations tested
HMG CoA reductase [5] = experiment: Enzymatic studies in vitro: cholesterol synthesis (HMG CoA reductase); format: biochemical; conditions: 200 μM
male CF1 mice [6] = experiment: Hypolipidemic activity in CF1 mice, intraperitoneal dosing (serum cholesterol and triglyceride); format: in vivo; conditions: Table III, 4 mg/kg/day i.p., N = 6
fatty acid synthetase = biological target: T4, fatty acid synthetase (Mus musculus, UniProt P19096); experiment: Enzymatic studies in vitro: fatty acid synthetase; format: biochemical
T4 construct: from tissue
T4 sequence (P19096 whole entry): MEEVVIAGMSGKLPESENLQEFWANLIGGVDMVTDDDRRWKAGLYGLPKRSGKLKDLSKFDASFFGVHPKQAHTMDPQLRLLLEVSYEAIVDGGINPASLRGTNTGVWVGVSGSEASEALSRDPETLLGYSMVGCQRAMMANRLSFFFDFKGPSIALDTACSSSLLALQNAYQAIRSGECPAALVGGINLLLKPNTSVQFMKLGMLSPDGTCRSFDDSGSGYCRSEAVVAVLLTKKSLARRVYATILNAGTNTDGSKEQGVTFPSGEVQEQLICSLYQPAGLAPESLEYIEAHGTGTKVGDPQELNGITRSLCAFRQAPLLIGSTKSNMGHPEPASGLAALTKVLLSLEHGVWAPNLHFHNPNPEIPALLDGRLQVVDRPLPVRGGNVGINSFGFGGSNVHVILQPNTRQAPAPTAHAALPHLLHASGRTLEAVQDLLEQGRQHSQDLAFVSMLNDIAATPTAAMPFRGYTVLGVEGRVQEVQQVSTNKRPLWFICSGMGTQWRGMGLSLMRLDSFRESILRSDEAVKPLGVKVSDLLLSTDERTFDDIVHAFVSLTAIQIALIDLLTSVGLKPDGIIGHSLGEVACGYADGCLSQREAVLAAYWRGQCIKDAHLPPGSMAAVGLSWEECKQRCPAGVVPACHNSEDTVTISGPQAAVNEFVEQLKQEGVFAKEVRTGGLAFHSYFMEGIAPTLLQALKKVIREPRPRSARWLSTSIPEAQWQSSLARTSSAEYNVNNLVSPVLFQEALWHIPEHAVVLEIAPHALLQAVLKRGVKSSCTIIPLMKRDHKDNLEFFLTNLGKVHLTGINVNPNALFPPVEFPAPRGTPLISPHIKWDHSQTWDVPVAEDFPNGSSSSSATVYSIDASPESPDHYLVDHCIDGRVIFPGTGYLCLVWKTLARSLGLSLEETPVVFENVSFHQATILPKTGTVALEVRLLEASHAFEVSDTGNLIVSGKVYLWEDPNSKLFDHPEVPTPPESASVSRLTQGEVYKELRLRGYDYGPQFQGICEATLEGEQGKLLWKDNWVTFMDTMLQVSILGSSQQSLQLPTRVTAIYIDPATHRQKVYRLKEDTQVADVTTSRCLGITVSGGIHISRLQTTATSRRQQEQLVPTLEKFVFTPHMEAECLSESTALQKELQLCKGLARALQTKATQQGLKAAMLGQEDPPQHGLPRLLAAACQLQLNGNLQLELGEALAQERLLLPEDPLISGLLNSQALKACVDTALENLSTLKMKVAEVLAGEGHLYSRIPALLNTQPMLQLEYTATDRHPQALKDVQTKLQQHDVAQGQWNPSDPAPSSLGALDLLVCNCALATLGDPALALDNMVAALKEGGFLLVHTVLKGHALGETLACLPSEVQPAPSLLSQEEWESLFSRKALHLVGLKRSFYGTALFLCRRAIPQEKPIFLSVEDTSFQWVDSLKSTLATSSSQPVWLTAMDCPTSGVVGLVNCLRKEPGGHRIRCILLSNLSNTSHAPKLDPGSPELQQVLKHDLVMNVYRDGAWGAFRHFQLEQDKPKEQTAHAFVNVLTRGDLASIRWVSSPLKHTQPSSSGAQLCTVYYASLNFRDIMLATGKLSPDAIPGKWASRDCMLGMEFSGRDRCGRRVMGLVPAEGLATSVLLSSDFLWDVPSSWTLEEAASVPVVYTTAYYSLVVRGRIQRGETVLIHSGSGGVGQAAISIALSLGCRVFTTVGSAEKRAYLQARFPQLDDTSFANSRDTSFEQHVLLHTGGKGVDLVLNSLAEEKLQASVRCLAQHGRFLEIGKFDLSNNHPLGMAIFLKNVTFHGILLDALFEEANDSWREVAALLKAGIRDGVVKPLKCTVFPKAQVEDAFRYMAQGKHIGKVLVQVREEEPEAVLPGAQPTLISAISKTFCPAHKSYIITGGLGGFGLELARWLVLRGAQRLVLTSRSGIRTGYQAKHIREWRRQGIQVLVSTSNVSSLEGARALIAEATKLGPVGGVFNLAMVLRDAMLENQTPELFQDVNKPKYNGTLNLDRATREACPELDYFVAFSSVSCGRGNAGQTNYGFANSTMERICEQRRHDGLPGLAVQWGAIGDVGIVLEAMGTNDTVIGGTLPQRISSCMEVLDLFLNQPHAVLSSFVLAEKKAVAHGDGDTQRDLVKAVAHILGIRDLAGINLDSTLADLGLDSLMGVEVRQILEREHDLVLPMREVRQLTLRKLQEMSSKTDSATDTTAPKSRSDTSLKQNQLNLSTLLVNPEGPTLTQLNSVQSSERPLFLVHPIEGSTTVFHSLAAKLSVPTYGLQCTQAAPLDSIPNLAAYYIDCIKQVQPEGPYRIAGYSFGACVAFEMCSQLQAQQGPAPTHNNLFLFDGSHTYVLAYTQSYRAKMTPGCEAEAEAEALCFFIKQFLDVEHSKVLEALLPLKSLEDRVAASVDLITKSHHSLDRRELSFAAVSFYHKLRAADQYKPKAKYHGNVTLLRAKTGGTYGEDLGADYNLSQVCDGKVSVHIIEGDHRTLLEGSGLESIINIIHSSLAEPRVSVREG

[7] = CF1 male mice, 8 mg/kg/day I.P.

With `[BH3-][N+](C)(C)CCCCCCCCCCCCCCCCCC` [I, N-n-Octadecyl-N,N-Dimethylamine Borane] the “lowering of acyl CoA cholesterol acyl transferase activity” value [1] was 52%, the “reduction of acetyl CoA synthetase activity” value (acetyl CoA synthetase) was “more than 50%” and the “reduction of serum cholesterol levels” value (male CF1 mice [2]; [7]) was 41%. For the same compound, the “reduction of serum triglyceride levels” value (male CF1 mice [2]; [7]) was 59%, the response vs control in vivo at 20 mg/kg (male CF1 mice [2]; 216 h, day 9, read-out: Serum Cholesterol Day 9) was 82% and the response vs control in vivo at 20 mg/kg (male CF1 mice [2]; 384 h, day 16, read-out: Serum Cholesterol Day 16) was 79%. The response vs control in vivo at 20 mg/kg (male CF1 mice [2]; 384 h, day 16, read-out: Serum Triglyceride Day 16) was 77%, the “Serum Cholesterol Day 9 (X ± SD)” value (male CF1 mice [2]; 2 mg/kg/day i.p.) was 71 ± 6% of Control and the “Serum Cholesterol Day 16 (X ± SD)” value (male CF1 mice [2]; 2 mg/kg/day i.p.) was 61 ± 7% of Control. For the same compound, the “Serum Triglyceride Day 16 (X ± SD)” value (male CF1 mice [2]; 2 mg/kg/day i.p.) was 45 ± 4% of Control, the “Serum Cholesterol Day 9 (X ± SD)” value (male CF1 mice [2]; 4 mg/kg/day i.p.) was 69 ± 5% of Control and the “Serum Cholesterol Day 16 (X ± SD)” value (male CF1 mice [2]; 4 mg/kg/day i.p.) was 59 ± 5% of Control. The “Serum Triglyceride Day 16 (X ± SD)” value (male CF1 mice [2]; 4 mg/kg/day i.p.) was 49 ± 5% of Control, the “Serum Cholesterol Day 9 (X ± SD)” value (male CF1 mice [2]; 8 mg/kg/day i.p.) was 79 ± 7% of Control and the “Serum Cholesterol Day 16 (X ± SD)” value (male CF1 mice [2]; 8 mg/kg/day i.p.) was 59 ± 4% of Control. For the same compound, the “Serum Triglyceride Day 9 (X ± SD)” value (male CF1 mice [2]; 8 mg/kg/day i.p.) was 87 ± 7% of Control, the “Serum Triglyceride Day 16 (X ± SD)” value (male CF1 mice [2]; 8 mg/kg/day i.p.) was 41 ± 3% of Control and the “Serum Cholesterol Day 9 (X ± SD)” value (male CF1 mice [2]; 12 mg/kg/day i.p.) was 62 ± 6% of Control. The “Serum Cholesterol Day 16 (X ± SD)” value (male CF1 mice [2]; 12 mg/kg/day i.p.) was 61 ± 5% of Control, the “Serum Triglyceride Day 9 (X ± SD)” value (male CF1 mice [2]; 12 mg/kg/day i.p.) was 58 ± 6% of Control and the “Serum Triglyceride Day 16 (X ± SD)” value (male CF1 mice [2]; 12 mg/kg/day i.p.) was 56 ± 7% of Control. The “Serum Cholesterol Day 9 (X ± SD)” value (male CF1 mice [2]; 16 mg/kg/day i.p.) was 60 ± 5% of Control, the “Serum Cholesterol Day 16 (X ± SD)” value (male CF1 mice [2]; 16 mg/kg/day i.p.) was 61 ± 6% of Control and the “Serum Triglyceride Day 9 (X ± SD)” value (male CF1 mice [2]; 16 mg/kg/day i.p.) was 73 ± 8% of Control. For the same compound, the “Serum Triglyceride Day 16 (X ± SD)” value (male CF1 mice [2]; 16 mg/kg/day i.p.) was 63 ± 8% of Control, the “Serum Cholesterol Day 9 (X ± SD)” value (male CF1 mice [2]; 20 mg/kg/day i.p.) was 82 ± 7% of Control and the “Serum Cholesterol Day 16 (X ± SD)” value (male CF1 mice [2]; 20 mg/kg/day i.p.) was 79 ± 7% of Control. For the same compound, the “Serum Triglyceride Day 16 (X ± SD)” value (male CF1 mice [2]; 20 mg/kg/day i.p.) was 77 ± 7% of Control, the “Serum Cholesterol Day 9 (X ± SD)” value (male CF1 mice [2]; 40 mg/kg/day i.p.) was 83 ± 6% of Control and the “Serum Cholesterol Day 16 (X ± SD)” value (male CF1 mice [2]; 40 mg/kg/day i.p.) was 79 ± 8% of Control. The “Serum Triglyceride Day 16 (X ± SD)” value (male CF1 mice [2]; 40 mg/kg/day i.p.) was 93 ± 6% of Control, the “Serum Cholesterol Day 9 (X ± SD)” value (male CF1 mice [2]; 60 mg/kg/day i.p.) was 81 ± 6% of Control and the “Serum Cholesterol Day 16 (X ± SD)” value (male CF1 mice [2]; 60 mg/kg/day i.p.) was 82 ± 6% of Control. For the same compound, the “Serum Triglyceride Day 16 (X ± SD)” value (male CF1 mice [2]; 60 mg/kg/day i.p.) was 113 ± 4% of Control, the optimum dosage (male CF1 mice [2]; in mice) was “about 8 mg./kg./day” and the “effect on Actyl CoA carboxylase activity” value (Actyl CoA carboxylase) was “unaffected”. The “reduction of HMG CoA reductase activity” value (HMG CoA reductase [3]) was 34%, the “reduction of liver mitochondrial citrate exchange” value [4] was “more than 50%” and the “reduction of cholesterol synthesis (HMG CoA reductase)” value (HMG CoA reductase [5]) was 38%. For the same compound, the “Serum Triglyceride Day 9 (X ± SD)” value (male CF1 mice [6]) was 80 ± 9% of Control and the “effect on fatty acid synthetase activity” value (fatty acid synthetase) was “unaffected”.
